For the test, the system named is E. coli WT-GFP vs G2058-humanized RFP, fluorescence, 24 h. The test can be described thus: growth inhibition of wild-type GFP E. coli versus G2058-humanized strain, dose response, G2058 mutant RFP vs wild-type GFP, cherry-pick, two tests (AID 1035470).
Setting [1] is: E. coli WT-GFP vs G2058-humanized RFP mixed culture, total growth OD600, 24 h.
Where [2] appears, read: measured here: G2058 humanized mutant RFP growth.

Inconclusive results are not listed. Activity calls are given as the source filed them.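 The calls were made as follows: active = compound lowering the normal-ribosome reporter at least twice as much as the humanized-ribosome reporter, growth loss under a set limit; inconclusive = no clear call, values can overlap the other calls; inactive = the rest.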 Some results are limits rather than exact numbers.

Among the data in PubChem BioAssay AID1035470 (Broad Institute, 2014) are AC50 values, retold here.

A word on the AC50: it is the midpoint of the concentration-response curve, whichever way the signal moves.

Take `CC(=O)c1ccc(OCC(=O)Nc2ccc3c(c2)CCC3)cc1`: the AC50 was > 100 µM (inactive). This molecule also displayed a half-maximal activity concentration (AC50) under setting [1] greater than 100 µM. On to `COc1ccc(NC(=O)c2sccc2-n2cccc2)cc1`, for which the AC50 was > 100 µM (inactive). The AC50 under setting [1] is greater than 100 µM. In turn, `COc1ccc(S(=O)(=O)N2CCOc3ccccc32)cc1` came in with a half-maximal activity concentration (AC50) under setting [1] greater than 100 µM and an AC50 under setting [2] greater than 100 µM.

As to `CC(C)(C)N(Cc1ccccc1)C(=O)COC(=O)Cn1cnc2ccccc2c1=O`, the AC50 under setting [1] was greater than 100 µM. For `O=C(Nc1cccc2ccccc12)c1ccc([N+](=O)[O-])o1`, the AC50 was > 100 µM (inactive). Under setting [1], the AC50 was greater than 100 µM. For `COc1cccc(S(=O)(=O)N2CCCCN3[C@H](CO)[C@H](c4ccc(C#CC(C)C)cc4)[C@@H]3C2)c1`, in that order: > 100 µM (inactive) and greater than 100 µM. On to `C[C@H](CO)N1C[C@H](C)[C@H](CN(C)C(=O)Nc2ccc3c(c2)OCO3)Oc2c(NC(=O)Nc3ccccc3)cccc2C1=O`, for which the AC50 was > 100 µM (inactive). In the case of `COc1ccc(OC)c(C(=O)COC(=O)c2ccc([N+](=O)[O-])o2)c1`, the AC50 is > 100 µM (inactive). This molecule also came in with an AC50 under setting [1] greater than 100 µM. Consider `O=C(COC(=O)Cc1ccccc1F)Nc1ccc(Cl)cn1`, for which the AC50 was > 100 µM (inactive).

On to `Cc1cc(OCC(=O)N(Cc2ccco2)C2CCS(=O)(=O)C2)ccc1Cl` (stereo not drawn), for which the AC50 is > 100 µM (inactive). The AC50 under setting [1] was greater than 100 µM.

Turning to `Oc1ccc(-c2csc(Nc3ncccn3)n2)cc1`, the half-maximal activity concentration (AC50) by setting is: under setting [1], greater than 100 µM; under setting [2], greater than 100 µM. Under setting [1], `CC(CCc1ccccc1)NC(=O)CCC1CCCC1` (stereo not drawn) registered an AC50 greater than 100 µM. Consider `O=S(=O)(c1ccc(Cl)cc1)N1CCN=C1SCc1cccc(Cl)c1`, for which the AC50 is > 100 µM (inactive). As for `Cc1cccc(NC(=O)c2c(C)nn(-c3ccccc3)c2Cl)c1`, the AC50 under setting [1] was greater than 100 µM.

Take `COc1ccc(NC(=O)Nc2cccc3c2O[C@@H](CN(C)S(=O)(=O)c2ccc(Cl)cc2)[C@@H](C)CN([C@@H](C)CO)C3=O)cc1`: the AC50 was > 100 µM (inactive). The same measure, in the same setting: next, `Cc1c(-c2cccc(Cl)c2)nc2ccccc2c1C(=O)N1CCC2(CC1)OCCO2`: > 100 µM (inactive). On the same count and under the same terms, next, `C=CCN(CC=C)C(=O)c1ccc2nc(Cc3ccc(OC)c(OC)c3)oc2c1`: > 100 µM (inactive). Consider `COC(=O)c1ccccc1NC(=O)c1ccc2c(c1)CC(C)O2` (stereo not drawn), for which the AC50 was > 100 µM (inactive). In addition, under setting [1], the half-maximal activity concentration (AC50) came to 52.3 µM. For `COc1ccc(-n2ccnc2SCC(=O)NCc2ccccc2)c(OC)c1`, in that order: > 100 µM (inactive) and greater than 100 µM. On to `COCCn1c(SCC(=O)Nc2ccccc2OC)nc2ccccc21`, for which the AC50 is > 100 µM (inactive).

On to `N#Cc1ccc(C(=O)Nc2ccn(-c3ccccc3)n2)cc1`, for which the AC50 was > 100 µM (inactive). Turning to `COc1ccc(CN2C(=O)CC(Cc3cc(C)cc(C)c3)C2=O)cc1OC` (stereo not drawn), the AC50 under setting [1] was greater than 100 µM. Take `COc1ccc(OC)c(-c2csc(NC(=O)C3COc4ccccc4O3)n2)c1` (stereo not drawn): the AC50 was > 100 µM (inactive). The molecule also yielded an AC50 under setting [1] greater than 100 µM.

Consider `OC(COc1ccc(Cl)cc1)CN1CCN(c2ccccn2)CC1` (stereo not drawn), for which the AC50 was > 100 µM (inactive).

As to `O=C(Cn1cc(COc2c(F)c(F)cc(F)c2F)nn1)c1ccc(O)cc1`, the AC50 is > 100 µM (inactive). Under setting [1], this molecule returned an AC50 greater than 100 µM.

For `O=C1c2cccc3cccc(c23)C(=O)N1c1ccccc1Cl`, the AC50 is > 100 µM (inactive). The same measure, in the same setting: for `COc1ccc(-c2cc(C(=O)N3CCc4ccccc4C3)no2)cc1` the value was > 100 µM (inactive). For `Cc1ccc(Nc2cc(C(=O)NCCCN3CCOCC3)c3ccccc3n2)cc1C`, the AC50 is > 100 µM (inactive). Also, the half-maximal activity concentration (AC50) under setting [1] is greater than 100 µM. In the case of `C[C@@H]1CN([C@@H](C)CO)C(=O)c2cc(NC(=O)Nc3cccc4ccccc34)ccc2O[C@@H](C)CCCCO[C@H]1CN(C)C(=O)CCCN(C)C`, the AC50 was > 100 µM (inactive). Take `CC(C)(C)NC(=O)C(c1ccncc1)N(Cc1ccc(F)cc1)C(=O)c1ccc(-c2ccccc2)[nH]1` (stereo not drawn): the AC50 under setting [1] is greater than 100 µM. On the same count and under the same terms, next, `O=C(Nc1cccc(S(=O)(=O)c2cccc(NC(=O)C3CC3)c2)c1)C1CC1`: greater than 100 µM. For `CN(C)CCCNc1ccc(-c2cc(Nc3cccc(Cl)c3)ncn2)cn1`, the AC50 was > 100 µM (inactive). Take `O=c1[nH]c2cc([N+](=O)[O-])ccc2c2ccccc12`: the AC50 is > 100 µM (inactive). Under setting [1], this molecule displayed an AC50 greater than 100 µM. Besides, under setting [2], the AC50 is greater than 100 µM. As to `COc1cccc(C(=O)Nc2nnc(S(=O)(=O)N(C)Cc3ccccc3)s2)c1`, the AC50 was > 100 µM (inactive). Further, the concentration at half-maximal activity (AC50) under setting [1] is greater than 100 µM. `CN(C)S(=O)(=O)c1ccc(Cl)c(C(=O)OCC(=O)NC(=O)c2cccn2C)c1`: the AC50 was > 100 µM (inactive). As for `CCOc1cccc(-c2cc(-c3n[nH]c(=S)n3CC)c3ccccc3n2)c1`, the AC50 is > 100 µM (inactive).

Molecule `C[C@@H]1CCCCO[C@@H](CN(C)C)[C@H](C)CN([C@@H](C)CO)C(=O)c2cc(NC(=O)Nc3cccc4ccccc34)ccc2O1` registered a concentration at half-maximal activity (AC50) under setting [1] greater than 100 µM.

Regarding `CN(C)CCCN(C(=O)CCOc1ccccc1)c1nc2c(F)cccc2s1`, the AC50 is > 100 µM (inactive). The same measure, in the same setting: for `O=C(CCc1ccccc1)Nc1sc2c(c1C(=O)O)CCCC2` the value was > 100 µM (inactive). Under setting [1], `CCC(C(=O)NC1CCCC1)n1c(-c2ccnc3ccccc23)nc2ccccc21` (stereo not drawn) registered an AC50 greater than 100 µM. As to `COc1ccc2cc(CO)c3cc(OC)c(OC)cc3c2c1`, the concentration at half-maximal activity (AC50) was greater than 100 µM under setting [1] and greater than 100 µM under setting [2].

With `COc1ccc(-c2csc(NC(=O)c3ccccc3S(C)(=O)=O)n2)cc1`, the AC50 was > 100 µM (inactive). The AC50 under setting [1] is greater than 100 µM. This molecule also registered an AC50 under setting [2] greater than 100 µM. Consider `Cc1cccc(CSCC(=O)N2CCN(S(=O)(=O)c3ccccc3C#N)CC2)c1`, for which the AC50 was > 100 µM (inactive). For `COc1ccc(-c2csc(NC(=O)c3ccoc3C)n2)cc1`, the concentration at half-maximal activity (AC50) under setting [1] was greater than 100 µM. On to `Cc1ccc(S(=O)(=O)Nc2ccccc2CNc2cccc(C)n2)cc1`, for which the AC50 was > 100 µM (inactive). This molecule also yielded an AC50 under setting [1] greater than 100 µM. Turning to `Cc1ccc2nc(-c3ccc(Cl)cc3)c(Cc3ccccc3C(F)(F)F)n2c1`, under setting [1], the AC50 was greater than 100 µM. Regarding `COc1cc2c(c(OC)c1OC)C(c1ccc3c(c1)OCO3)CC(=O)O2` (stereo not drawn), the AC50 was > 100 µM (inactive). This molecule also came in with a half-maximal activity concentration (AC50) under setting [1] greater than 100 µM. On to `CC(=O)N1CCN(c2nc(-c3cccs3)nc3ccccc23)CC1`, for which the AC50 is > 100 µM (inactive).

`CCc1cc2cc(OC)ccc2nc1SCC(=O)Nc1cc(OC)c(OC)cc1C(=O)O`: the AC50 was > 100 µM (inactive). The molecule further returned a half-maximal activity concentration (AC50) under setting [1] greater than 100 µM. Under setting [1], `COc1cc(OC)c(NS(=O)(=O)c2cccc(C(=O)OCC(=O)NCC3CCCO3)c2)cc1Cl` (stereo not drawn) yielded an AC50 greater than 100 µM. Molecule `COc1ccc(CNC(=O)c2sc3nc4c(c(C(F)(F)F)c3c2N)CCC4)cc1OC` displayed a concentration at half-maximal activity (AC50) under setting [2] greater than 100 µM. For `COc1ccc(OC)c(-c2nnc3n2N=C(c2ccc(OC)c(OC4CCOC4)c2)CS3)c1` (stereo not drawn), the AC50 was > 100 µM (inactive). The same measure, in the same setting: next, `CS(=O)(=O)NCCSc1cc(C(F)(F)F)nc2ccccc12`: > 100 µM (inactive).

In the case of `O=C1c2ccccc2C(c2nnnn2Cc2ccccc2)N1Cc1cccc(F)c1` (stereo not drawn), the AC50 under setting [1] was greater than 100 µM. Still for that read-out and setting: next, `COc1ccc(NC(=O)CSc2n[nH]c(-c3ccncc3)n2)c([N+](=O)[O-])c1`: greater than 100 µM.

In the case of `O=C1c2ccccc2C(c2nnnn2C2CCCCC2)N1CCc1ccc(O)cc1` (stereo not drawn), the AC50 was > 100 µM (inactive). `COc1ccc(-c2noc(=O)n2Cc2ccccc2Cl)cc1` showed a half-maximal activity concentration (AC50) under setting [1] greater than 100 µM.

With `CCC1(C(=O)OC)CCc2c(cc(OC)c3ccccc23)C1=O` (stereo not drawn), the AC50 was > 100 µM (inactive). Take `COc1ccc(C#Cc2ccc([C@H]3[C@@H](CO)N4CCCCN(C(=O)Nc5cccc(F)c5)C[C@H]34)cc2)cc1`: the AC50 under setting [1] is greater than 100 µM. In the case of `COc1cc(OC)cc(C(=O)Nc2ccc(C(=O)Nc3ccccc3OC)cc2)c1`, the AC50 was > 100 µM (inactive). Under setting [1], the half-maximal activity concentration (AC50) is greater than 100 µM.

As to `O=C(Nc1ccccc1Cl)c1ccc2c(c1)N(Cc1ccc(F)cc1)C(=O)CS2=O` (stereo not drawn), the AC50 is > 100 µM (inactive). The same measure, in the same setting: for `COc1cc(C2CC(=O)Oc3cc(C)cc(C)c32)cc(OC)c1OC` (stereo not drawn) the value was > 100 µM (inactive). The same measure, in the same setting: next, `O=C(O)CC(CC(=O)Nc1ccc(Oc2ccccc2)cc1)c1ccccc1` (stereo not drawn): > 100 µM (inactive); `Cc1cc(C(C)(C)C)oc1C(=O)N(CC(=O)NC1CCCC1)c1c(C)cccc1C`: > 100 µM (inactive); `COc1ccc(C(=O)Nc2ccc3nc(C)sc3c2)cc1OC`: > 100 µM (inactive).

Take `O=C(Nc1cccc2c1CCCC2)c1ccco1`: the AC50 was > 100 µM (inactive). Under setting [1], this molecule gave a half-maximal activity concentration (AC50) greater than 100 µM.

As for `CC1(C(=O)NS(=O)(=O)c2cccc(Cl)c2)CCN1C(=O)C1(c2ccc(Cl)cc2)CCC1` (stereo not drawn), the AC50 was > 100 µM (inactive). `COc1ccccc1N(C)S(=O)(=O)c1ccc(Cl)c(C(=O)NC2=NCCS2)c1`: the AC50 under setting [2] is 46.3 µM. With `O=C(CN(c1ccc(F)cc1)S(=O)(=O)c1ccccc1)Nc1ccccc1C(=O)O`, the half-maximal activity concentration (AC50) under setting [1] is greater than 100 µM. As to `COc1cc2[nH]c(=S)nc(NCCc3ccc(C)cc3)c2cc1OC`, the AC50 was > 100 µM (inactive). As to `CCN(CC(=O)Nc1ccccc1OC)CC(=O)Nc1c(Cl)ccc(C)c1Cl`, the AC50 was > 100 µM (inactive). In addition, under setting [1], the half-maximal activity concentration (AC50) was greater than 100 µM. The like results for `CCOC(=O)c1[nH]c2ccccc2c1NC(=O)c1ccc(Br)o1` were, in that order, > 100 µM (inactive) and greater than 100 µM. The molecule `O=C(CCNC(=O)c1ccco1)Nc1cccc(Br)c1` registered an AC50 under setting [1] greater than 100 µM.

`COC(=O)c1ccc(CSc2nc3ccccc3s2)o1` showed an AC50 under setting [1] greater than 100 µM. In the case of `C=CCSc1cc(C)nc2c(-c3ccccc3)c(C)nn12`, the AC50 was > 100 µM (inactive).

Take `O=c1c2ccccc2cnn1Cc1n[nH]c(=S)n1C1CC2CCC1C2` (stereo not drawn): the AC50 is > 100 µM (inactive). Further, under setting [1], the AC50 was greater than 100 µM.
